By Km is commonly meant the concentration of substrate that gives half-maximal velocity. Broadly, the stoichiometry N is a count of units in the complex or per binding partner.

Data set [1] addresses T1, ZHD (zearalenone hydrolase) (Clonostachys rosea, UniProt Q8NKB0, V26I/P69A/V87I/K148N/M168L/D170V/K198Q/L200V).
T1 construct: gene zhd101; full length; natural clone from genomic DNA of a CGMCC strain; extra N-terminal MD; E. coli BL21(DE3); dimer
As to the kind of experiment: HPLC of remaining ZEN. It counts as biochemical. The conditions noted are these: 100 mM Tris-HCl pH 9.5, 30 °C, 15 nM ZHD, 1-50 µM ZEN.

Data set [2] deals with the molecule itself. As to the kind of experiment: SEC; HiLoad 16/60 Superdex 200 prep-grade column, last step of the purification; oligomeric state from the elution position. For orientation: In gel filtration, larger molecules generally elute earlier.

On to `C[C@H]1CCCC(=O)CCC/C=C/c2cc(O)cc(O)c2C(=O)O1` [ZEN, zearalenone], for which the Michaelis-Menten constant (Km) in data set [1] was determined as 3.5 µM.

B1: Zearalenone hydrolase (ZHD), C-terminally His6-tagged (enzyme, Clonostachys rosea)
chain: MDMRTRSTISTPNGITWYYEQEGTGPDIVLVPDGLGECQMFDSSVSQIAAQGFRVTTFDMPGMSRSAKAPAETYTEVTAQKLASYVISILDALDIKHATVWGCSSGASTVVALLLGYPDRIRNAMCHELPTKLLDHLSNTAVLEDEEISNILANVMLNDVSGGSEAWQALGVEVHARLHKNYPVWARGYPRTIPPSAPVQDVEALRGKPLDWTVGAATPTESFFDNIVTATKAGVNIGLLPGMHFPYVSHPDVFAKYVVETTQKHLWNSSSVDKLAAALE
notes: zearalenone hydrolase (ZHD) cloned from genomic DNA of a Clonostachys rosea strain (CGMCC); natural strain variant with eight amino-acid variations compared with GenBank ALI16790.1; 14-amino-acid linker between ZHD and the C-terminal His6 tag; The His6 is written under tags, the linker as a part; The substitutions count against GenBank ALI16790.1, not necessarily against the UniProt entry; also …
With B1, the “stoichiometry N” value in data set [2] came to 2.

These data come from article PMC5505240, “The structure of a complex of the lactonohydrolase zearalenone hydrolase with the hydrolysis product of zearalenone at 1.60 Å resolution” (Acta Crystallographica. Section F, Structural Biology …, 2017).
